1 compound from patent publication US20110230659A1, “CYCLOBUTYL PURINE DERIVATIVE, ANGIOGENESIS PROMOTING AGENT, LUMEN FORMATION PROMOTING AGENT, NEUROCYTE GROWTH PROMOTING AGENT, AND DRUG” (NATIONAL UNIVERSITY CORPORATION KAGAWA UNIVERSITY, priority 2008, published 2011) can be followed below.

The subject of assay [1] is rat adrenal medulla-derived cell line PC12. The experiment in a line: Differentiation of PC12 cells, morphological change (micrographs). Format: cell-based. Particulars: 2-Cl—C.OXT-A at 50 μmol/l and 100 μmol/l; sixth day of culture. Here is the method:
In the present example, using rat adrenal medulla-derived cell line PC12, which is neurocyte model cells, obtained from the RIKEN BioResource Center, the effect of 2-Cl—C.OXT-A of Example 1 on the differentiation of PC12 cells was examined.
(§1) Three samples were prepared by adding additives shown in Table 5 below to PBS so as to achieve predetermined concentrations. Also, an evaluation medium was prepared by adding each sample or PBS to DMEM (no serum) so that its concentration became 10 v/v %. Furthermore, as a control medium, a medium containing only DMEM (no serum) was prepared. […] On the sixth day of the culture, the cells were photographed under a microscope, and the AChE activity was measured according to the Ellman's method (Ellman, G. L., et al., Biochem. Pharmacol., 7, pp. 88-95, (1961)). Specifically, the AChE activity was measured in the following manner. […] The sample solution, 75 μl of 10 mmol/l DTNB, and 3.0 ml of 0.1 mol/l phosphate buffer solution (pH 8.0) were added to a […] for absorbance measurement, and finally, 50 μl of 100 mmol/l acetylthiocholine was added to cause a reaction. The absorbance of the reaction solution at 412 nm was measured for 5 minutes from immediately after the addition of the ace tylthiocholine. From the thus-measured absorbances, the amount of increase in absorbance (C) per minute was determined. […]

For a further assay, the system named is MEK. The experiment in a line: MEK phosphorylation immunoblot in HUVEC. Format: cell-based, human. The note with it: 100 μmol/l; 15 minutes after the addition. Here is the method: (§2) First, to a HuMedia-EB2 medium (Kurabo) to which 2 v/v % inactivated fetal bovine serum (FBS) had been added, 2-Cl—C.OXT-A was added so that its concentration became 100 μmol/l. Thus, a medium was prepared. Using the medium, human umbilical vein endothelial cells (HUVEC) were cultured for predetermined periods (0, 10, 20, 30, 45, and 60 minutes).
After the culture, cells were collected. The collected cells were lysed by adding a cell lysis buffer (SDS-lysis buffer) thereto, and heat-denatured at 95° C. for 5 minutes. […]
The enzymes were visualized with SuperSignal (registered trademark) West Pico Chemiluminescent Substrate (Pierce), and detected by being exposed to RX—U X-ray film (FUJIFILM Corporation). From the detected bands, the respective phosphoenzymes and total enzymes were quantified using an NIH image software. Furthermore, the relative value (−fold) of each phosphoenzyme was calculated by substituting the measured value of the phosphoenzyme into the following equation (III). […]
In the present example, the effect of 2-Cl—C.OXT-A used in Example 1 on the phosphorylation of MEK was examined. MEK is a protein kinase involved in the angiogenesis signal transduction pathway and located upstream of ERK measured in Example 3, and acts to promote angiogenesis. […]
A general note: In western blotting, separated proteins are transferred to a membrane and probed.

The test system of the next assay is Akt. The experiment in a line: Akt activation (phosphorylation) immunoblot in HUVEC. Type of assay: cell-based, human. Particulars: 100 μmol/l; 0 to 60 minutes. As for the experimental part:
as §2
After the culture, cells were collected. The collected cells were lysed by adding a cell lysis buffer (SDS-lysis buffer) thereto, and heat-denatured at 95° C. for 5 minutes. The solubilized protein in an amount corresponding to 5 v/v % of the heat-denatured cell lysate was subjected to electrophoresis using 10% SDS-polyacrylamide gel, whereby the solubilized protein was transferred onto a nitrocellulose membrane (Amersham Biosciences). […]
The enzymes were visualized with SuperSignal (registered trademark) West Pico Chemiluminescent Substrate (Pierce), and detected by being exposed to RX—U X-ray film (FUJIFILM Corporation). From the detected bands, the respective phosphoenzymes and total enzymes were quantified using an NIH image software. Furthermore, the relative value (−fold) of each phosphoenzyme was calculated by substituting the measured value of the phosphoenzyme into the following equation (III).

The test system of assay [2] is rat adrenal medulla-derived cell line PC12. The experiment in a line: Differentiation of PC12 cells, AChE activity (Ellman's method). Type of assay: cell-based. Particulars: 2-Cl—C.OXT-A 50 μmol/l and 100 μmol/l, sixth day of culture. As for the experimental part: as §1, with “prepared. The PC12 cells were suspended at a density of 5×10^4 cells/ml in DMEM to which 5 v/v % cow serum and 10 v/v % horse serum had been added. Thus, a cell suspension was prepared. 3 ml of the cell suspension was inoculated into a 6 petri dish.” for “prepared.”
In general terms: Ellman's reagent forms a yellow product with free thiols.

The structures appear in SMILES notation.

In the case of `Nc1nc(Cl)nc2c1ncn2C1CC(CO)C1CO` (stereo not drawn) [2-Cl—C.OXT-A, 6-amino-2-chloro-9-[trans-trans-2,3-bis(hydroxymethyl)cyclobutyl]purine], the “morphological change of PC12 cells (axon extension)” value in assay [1] is listed as “cells from which linear axons extend were observed”. Also, in the assay on MEK, the “relative value (−fold) of pMEK” value is recorded as “about 3.5 fold”. Besides, in the assay on Akt, the “amount of pAkt” value is reported as “not changed”. Further, in assay [2], the “AChE enzyme activity (relative value)” value was “increased”.
